Results taken from patent publication US11446304B2, “CDC-7-inhibitor compounds and use thereof for the treatment of neurological conditions” (CONSEJO SUPERIOR DE INVESTIGACIONES CIENTIFICAS (CSIC), priority 2017, dated 2022).

Key:
human recombinant CDC7 = molecular target: T1, human recombinant CDC7 (Homo sapiens, UniProt O00311); assay: CDC7 inhibition measurement (ADP-Glo technology); format: biochemical; conditions: ATP 10 μM, 60 min at room temperature; read-out: CDC7 ADP-Glo ™ CI50
T1 construct: purchased Promega V5089
T1 sequence (O00311 whole entry): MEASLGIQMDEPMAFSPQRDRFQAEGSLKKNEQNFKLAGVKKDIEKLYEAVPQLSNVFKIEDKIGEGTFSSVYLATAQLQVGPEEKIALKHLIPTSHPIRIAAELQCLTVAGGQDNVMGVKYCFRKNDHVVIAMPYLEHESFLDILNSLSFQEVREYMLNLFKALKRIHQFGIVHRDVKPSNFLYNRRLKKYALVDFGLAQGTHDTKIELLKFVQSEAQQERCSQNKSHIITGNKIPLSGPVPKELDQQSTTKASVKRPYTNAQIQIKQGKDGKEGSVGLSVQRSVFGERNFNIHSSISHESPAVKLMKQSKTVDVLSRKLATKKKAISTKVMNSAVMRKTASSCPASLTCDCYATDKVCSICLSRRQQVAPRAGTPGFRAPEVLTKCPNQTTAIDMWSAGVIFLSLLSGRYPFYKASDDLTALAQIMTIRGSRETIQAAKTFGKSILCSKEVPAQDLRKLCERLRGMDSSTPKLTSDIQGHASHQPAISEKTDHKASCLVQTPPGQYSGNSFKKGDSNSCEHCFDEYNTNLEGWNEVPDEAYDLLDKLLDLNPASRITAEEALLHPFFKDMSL
T1 sequence (Q9UBU7 whole entry partner): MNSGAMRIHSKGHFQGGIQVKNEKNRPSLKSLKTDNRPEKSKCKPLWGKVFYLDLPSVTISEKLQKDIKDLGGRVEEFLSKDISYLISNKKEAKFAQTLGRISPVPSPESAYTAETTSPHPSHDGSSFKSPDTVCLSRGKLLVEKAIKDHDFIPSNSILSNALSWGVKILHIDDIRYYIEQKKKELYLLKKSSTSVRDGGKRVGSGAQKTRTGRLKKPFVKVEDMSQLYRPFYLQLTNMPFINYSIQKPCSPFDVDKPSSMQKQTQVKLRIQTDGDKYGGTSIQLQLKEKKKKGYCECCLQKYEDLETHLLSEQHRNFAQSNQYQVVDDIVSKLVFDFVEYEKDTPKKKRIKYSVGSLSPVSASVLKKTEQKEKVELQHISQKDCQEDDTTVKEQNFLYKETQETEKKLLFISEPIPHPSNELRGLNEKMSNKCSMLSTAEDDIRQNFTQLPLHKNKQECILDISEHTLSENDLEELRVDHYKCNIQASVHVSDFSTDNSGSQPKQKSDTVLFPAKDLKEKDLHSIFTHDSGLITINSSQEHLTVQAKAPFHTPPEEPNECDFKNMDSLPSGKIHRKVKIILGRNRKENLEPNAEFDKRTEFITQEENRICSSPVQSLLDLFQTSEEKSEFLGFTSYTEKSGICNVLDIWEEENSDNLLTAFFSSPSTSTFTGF
Protocol: The method used is a non-radioactive enzyme inhibition assay using human recombinant CDC7. It is based on luminometric quantification of inhibition using the ADP-Glo™ Kinase Kit. In this test the luminescent signal correlates positively with the amount of adenosine diphosphate (ADP) and the activity of the kinase. […]
CDC7 enzyme inhibition studies were conducted using the promega kit: ADP-Glo™ Kinase Assay+CDC7/DBF4 Kinase Enzyme System (Catalogue No. V5089). ATP and other reagents were purchased in Sigma-Aldrich (St. Louis, Mo.). The trials were performed in a buffer solution using 96-well plates. The compound to be tested (5 μL, 40 μM dissolved in DMSO 4%) was added to each well followed by the enzyme (5 μL, 25 ng/well), ATP (5 μL, final concentration in well 10 μM) and PDKtidE (5 μL, 4 μg/well). It was then incubated for 60 minutes at room temperature and the reagent ADP-Glo™ (20 μL) was added and incubated again for 40 min at room temperature. After incubation, the kinase detection agent (40 μL) was added and incubated for 30 min at room temperature. Finally, the luminescence (integration time of 0.5-1 sec) was measured using a POLARstar Optima multimode reader polarimeter. Inhibition activities were calculated as a function of maximum activity, measured in the absence of inhibitor.

[1] = PAMPA blood-brain barrier permeation (porcine brain lipid); format: in vitro ADME; conditions: for Papp at 2.5 h: PAMPA-BHE, PBS pH 7.4/EtOH 70:30, 2 h 30 min at 25° C., mean ± SD, read-out: Pe; for PAMPA prediction of central nervous system (CNS) penetration: from Pe in PAMPA-BHE
Source text: An essential requirement for drugs for the treatment of neurodegenerative diseases is the ability to cross the blood-brain barrier (BBB), as otherwise they could not act on the target of interest. Therefore, for compounds that are not permeable or located in the area of uncertainty, it may be necessary to properly convey a pharmaceutical formulation through methods known to an expert in the field, such as encapsulation. This capability can be predicted in vitro using a method known by the acronym PAMPA (Parallel Artificial Membrane Permeability Assay) described by Di et al (Di, L.; Kerns, E. H.; Fan, K.; McConnell, O. J.; Carter, G. T. Eur. J. Med. Chem. 2003, 38 (3), 223-232) and which has subsequently been fine-tuned in our research group. This method allows predicting the effective permeability through artificial membranes by means of a passive diffusion process.
First of all, it is necessary to validate the method, for which 10 commercial compounds are used whose penetration capacity in the central nervous system (CNS) is known and which are to be specified below, obtaining in this case a good linear correlation between the experimental permeability values (Pe) and those described (FIG. 1). This correlation line obtained following the pattern described in the bibliography allows establishing the limits to predict whether or not a compound can cross the blood-brain barrier. Thus, a compound is considered BBB permeable (SNC+) if it has a permeability>4.48×10^−6 cm-s^−1.
For the procedure, between 3-5 mg of caffeine, desipramine, enoxacin, hydrocortisone, ofloxacin, piroxicam and testosterone, 12 mg of promazine and 25 mg of atenolol and verapamil were taken and dissolved in EtOH (1000 μL). 100 μL of these solutions were taken and EtOH (1400 μL) and phosphate buffer (PBS) pH=7.4 (3500 μL) were added in order to achieve a final EtOH concentration of 30% v/v in solution. Finally, the dissolutions were filtered.
On the other hand, a PBS/EtOH solution (70:30) was added to each well of the acceptance plate (180 μL). The donor plate was impregnated with a porcine brain lipid solution (4 μL) dissolved in dodecane (20 mg mL^−1). After 5 min, dissolution of each compound was added to this plate (180 μL).
Of the compounds 1 to 10 evaluated, 1-2 mg were taken and dissolved in EtOH (1500 μL) and phosphate buffer (PBS) pH=7.4 (3500 μL), filtered and added to the donor plate. With these solutions, the wavelengths at which the compounds absorb are determined and the initial absorbance levels at these wavelengths are measured using a UV absorbance reader. Each sample was analyzed from two to five wavelengths, in three wells and in two independent experiments.
The donor plate was then deposited on the acceptor forming a kind of “sandwich” and incubated for 2 hours and 30 minutes at 25° C. In this way, the compounds will pass from the donor plate to the acceptor plate through the porcine brain lipid by passive diffusion. After that time, the donor plate is carefully removed and the concentration and final absorbance of both commercial and synthesized compounds is determined. The results obtained are expressed as the mean of the measurements [standard deviation (SD)] of the different experiments carried out and are shown in table 2.

[2] = molecular target: human recombinant CDC7/DBF4 (Homo sapiens, UniProt O00311); assay: CDC7 inhibition measurement (LanthaScreen Eu kinase binding, FRET); conditions: CDC7/DBF4 0.5 nM, 60 min at room temperature; read-out: CDC7 Lantha ™ CI50
Sequence of human recombinant CDC7/DBF4 (O00311 whole entry): as the sequence (O00311 whole entry) above
Sequence of human recombinant CDC7/DBF4 (Q9UBU7 whole entry partner): as the sequence (Q9UBU7 whole entry partner) above
Source text: The LanthaScreen Eu kinases inhibition assay uses an Alexa marker Fluor™ that binds to a kinase and is detected by the addition of an Eu-marked antibody. The binding of the marker and the antibody to the kinase results in a high degree of FRET, while the displacement of the marker by an inhibitor results in a loss of FRET. Unlike many other kinase activity tests, this is a simple mix and read test, with no developmental stages. This test method has been developed by Life Technologies and identifies competitive ATP kinase inhibitors, making them suitable for the detection of any compound that binds to the ATP site.
The compounds are evaluated at 1% DMSO (final) in the well. A mixture of human recombinant CDC7/DBF4 (0.5 nM), Eu-antiGST antibody (2 nM) and AlexaFluor marker (1 nM) has been used in a buffer of 50 mM HEPES pH 7.5, 0.01% BRIJ-35, 10 mM MgCl2, 1 mM EGTA in white plates of […], low volume, coded (Greiner cat. #784207), 160 nL (100×100% DMSO compound), 3.84 μL (buffer with CDC7/DBF4), 8.0 μL (antibody), 4.0 μL (marker) are added. Agitate 30 s and incubate at room temperature for 60 min. Then measure the fluorescence in the plate reader and analyze the data (Table 1).

Row | SMILES | IC50 (human recombinant CDC7) | Papp at 2.5 h [1] | PAMPA prediction of central nervous system (CNS) penetration [1] | melting point | IC50 [2]
1 | O=[N+]([O-])c1cccc(CSc2ncnc3[nH]cnc23)c1 [Compound 10, 6-((3-nitrobenzyl)thio)-9H-purine] | 6540 ± 320 nM | 3.9 ± 0.4 ×10⁻⁶ cm/s | SNC+/− | 193 to 195 °C | –
2 | FC(F)(F)c1ccc(CSc2ncnc3[nH]cnc23)cc1 [Compound 22, 6-(4-(trifluoromethyl)benzylthio)-9H-purine] | – | 13.5 ± 1.6 ×10⁻⁶ cm/s | SNC+ (a compound is considered BBB permeable (SNC+) if it has a permeability>4.48×10^−6 cm-s^−1) | – | 367 nM
3 | Brc1ccc(COc2ncnc3[nH]cnc23)cc1 [Compound 21, 6-((4-Bromobenzyl)oxy)-9H-purine] | – | 14 ± 1.4 ×10⁻⁶ cm/s | SNC+ (a compound is considered BBB permeable (SNC+) if it has a permeability>4.48×10^−6 cm-s^−1) | – | –
4 | Brc1ccc(CSc2[nH]cnc3ncnc2-3)cc1 [Compound 12, 6-((4-bromobenzyl)thio)-9H-purine] | 9140 ± 790 nM | 11.5 ± 0.7 ×10⁻⁶ cm/s | SNC+ (a compound is considered BBB permeable (SNC+) if it has a permeability>4.48×10^−6 cm-s^−1) | – | –
5 | c1ccc(COc2[nH]cnc3ncnc2-3)cc1 [Compound 20, 6-((benzyl)oxy)-9H-purine] | – | 2.9 ± 0.9 ×10⁻⁶ cm/s | SNC+/− | – | 167 nM
6 | Clc1ccccc1CSc1ncnc2[nH]cnc12 [Compound 14, 6-((2-Chlorobenzyl)thio)-9H-purine] | – | 18.1 ± 1.2 ×10⁻⁶ cm/s | SNC+ (a compound is considered BBB permeable (SNC+) if it has a permeability>4.48×10^−6 cm-s^−1) | 200 to 202 °C | 92 nM
7 | CC(=O)Nc1ccc(CSc2ncnc3[nH]cnc23)cc1 [Compound 18, 6-((4-Acetamidobenzyl)thio)-9H-purine] | – | – | – | 223 to 225 °C | –
8 | Clc1ccc(CSc2ncnc3[nH]cnc23)cc1 [Compound 5, 6-((4-chlorobenzyl)thio)-9H-purine] | 8460 ± 1050 nM | 12.2 ± 1.2 ×10⁻⁶ cm/s | SNC+ (a compound is considered BBB permeable (SNC+) if it has a permeability>4.48×10^−6 cm-s^−1) | 198 to 200 °C | 184 nM
9 | FC(F)(F)c1ccccc1CSc1ncnc2[nH]cnc12 [Compound 4, 6-((2-(trifluoromethyl)benzyl)thio)-9H-purine] | 9730 ± 1030 nM | 17.5 ± 0.9 ×10⁻⁶ cm/s | SNC+ (a compound is considered BBB permeable (SNC+) if it has a permeability>4.48×10^−6 cm-s^−1) | – | 245 nM
10 | Brc1cccc(CSc2ncnc3[nH]cnc23)c1 [Compound 11, 6-((3-bromobenzyl)thio)-9H-purine] | 5290 ± 710 nM | – | – | – | 138 nM
11 | COc1cccc(CSc2ncnc3[nH]cnc23)c1 [Compound 15, 6-((3-methoxybenzyl)thio)-9H-purine] | – | 5.3 ± 0.8 ×10⁻⁶ cm/s | SNC+ (a compound is considered BBB permeable (SNC+) if it has a permeability>4.48×10^−6 cm-s^−1) | – | –
12 | c1ccc2c(CSc3ncnc4[nH]cnc34)cccc2c1 [Compound 2, 6-((Naphthalene-1-ylmethyl)thio)-9H-purine] | 11200 ± 840 nM | 13.2 ± 2 ×10⁻⁶ cm/s | SNC+ (a compound is considered BBB permeable (SNC+) if it has a permeability>4.48×10^−6 cm-s^−1) | 221 to 222 °C | 347 nM
13 | Clc1cccc(COc2ncnc3[nH]cnc23)c1 [Compound 6, 6-((3-chlorobenzyl)oxy)-9H-purine] | 8980 ± 210 nM | 7.2 ± 0.6 ×10⁻⁶ cm/s | SNC+ (a compound is considered BBB permeable (SNC+) if it has a permeability>4.48×10^−6 cm-s^−1) | 197 to 199 °C | 194 nM
14 | CSc1ccc(CSc2ncnc3[nH]cnc23)cc1 [Compound 23, 6-((4-(Methylthio)benzyl)thio)-9H-purine] | – | 17.8 ± 0.7 ×10⁻⁶ cm/s | SNC+ (a compound is considered BBB permeable (SNC+) if it has a permeability>4.48×10^−6 cm-s^−1) | 203 to 205 °C | 146 nM
15 | N#Cc1ccc(CSc2ncnc3[nH]cnc23)cc1 [Compound 19, 6-((4-Cyanobenzyl)thio)-9H-purine] | – | 2 ± 0.7 ×10⁻⁶ cm/s | SNC+/− | 228 to 230 °C | –
16 | FC(F)(F)c1cccc(CSc2ncnc3[nH]cnc23)c1 [Compound 7, 6-((3-(trifluoromethyl)benzyl)thio)-9H-purine] | 6900 ± 830 nM | 16.3 ± 0.6 ×10⁻⁶ cm/s | SNC+ (a compound is considered BBB permeable (SNC+) if it has a permeability>4.48×10^−6 cm-s^−1) | 180 to 182 °C | –
17 | N#Cc1cccc(CSc2ncnc3[nH]cnc23)c1 [Compound 3] | 8380 ± 270 nM | 2.3 ± 0.2 ×10⁻⁶ cm/s | SNC+/− | 189 to 191 °C | 335 nM
18 | O=[N+]([O-])c1ccc(CSc2ncnc3[nH]cnc23)cc1 [Compound 17, 6-((4-nitrobenzyl)thio)-9H-purine] | – | 5.5 ± 1.3 ×10⁻⁶ cm/s | SNC+ (a compound is considered BBB permeable (SNC+) if it has a permeability>4.48×10^−6 cm-s^−1) | – | 127 nM
19 | CCOC(=O)c1ccccc1CSc1ncnc2[nH]cnc12 [Compound 16, Ethyl 2-(((9H-Purine-6-yl)thio)methyl)benzoate] | – | 9.7 ± 1.4 ×10⁻⁶ cm/s | SNC+ (a compound is considered BBB permeable (SNC+) if it has a permeability>4.48×10^−6 cm-s^−1) | 145 to 147 °C | 2790 nM
